Measured values taken from patent US7429564B2, “Oral insulin therapy” (Emisphere Technologies, Inc., priority 2002, dated 2008).
Where “and” joins values, the source holds several entries; their conditions need not be identical. Identical values can stand only once. Marks after values point to notes of the source that are not given here.

Columns and labels:
aorta mRNA expression = assay: GeneChip analysis of aorta mRNA expression after oral and SC dosing of insulin; type: in vivo, Sprague-Dawley rats; conditions: for Changes in aorta mRNA levels (control groups): component given orally alone
Experimental: A total of 60 male Sprague-Dawley rats were fasted for 24 hours and then anesthetized with Thorazine (1.5 mg/kg, im) and Ketamine (44 mg/kg, im). They were then divided into the following 5 treatment groups: • 1. H2O (p.o. 1 mL/kg) • 2. Carrier (p.o., 1 mL/kg; 200 mg/kg) • 3. Insulin (p.o., 1 ml/kg; 0.5 mg/kg) • 4. Insulin and Carrier (p.o., 1 ml/kg; 0.5 mg/kg Insulin and 200 mg/kg 1182) • 5. Insulin (s.c., 0.05 mg/kg) • There were twelve animals per group, with three being sacrificed at 30, 60, 120 and 180 minutes. For serum insulin and blood glucose monitoring, 0.4 mL of blood was drawn from the tail artery. Following euthanasia, an aorta sample was removed and snap-frozen in liquid nitrogen. All animal studies where conducted in accordance with the IACUC approved protocols.
Total RNA was prepared from the frozen tissue sample following the protocol for use of Trizol Reagent (Invitrogen, Inc., Carlsbad, Calif.). The samples were then further cleaned up by use of the Qiagen Midi Kit (Valencia, Calif.). Quality of each RNA sample was assessed using agarose gel electrophoresis and UV absorbance at 260 and 280. Acceptable RNA samples were pooled in equal quantities on a mass basis. This pooled sample was used to prepare cDNA following the protocol provided by Affymetrix. This sample was then used as template in an ii: vitro transcription labeling and amplification reaction using the Enzo BioArray High Yield RNA Transcript Labeling Kit (Affymetrix Inc., Santa Clara, Calif.). 15 μg of labeled transcript was then fragmented and used to prepare a hybridization solution as described in the Affymetrix GeneChip Protocol, Affymetrix, Inc., 2000.
The samples were hybridized to a Test Array and 5′ to 3′ ratios, detection limit, and image quality were assessed to ensure the quality of the labeled sample. Acceptable samples were then hybridized to an Affymetrix Rat U34A array. Washing and staining of these arrays was performed using the standard Affymetrix protocols. Array quality was assessed in the same manner as the Test array. Acceptable samples were analyzed both in the expression patterns seen across the group as well as pair wise in the following manner:
Fold change were determined by the Affymetrix Microarray Suite Software package and values below 2 fold were considered insignificant. This software package analysis compares the individual members of each probe set to determine a Difference Call. In this report all calculated fold changes are used in the figures, however in the results and discussion only those fold changes that received an Increasing or Decreasing call by the Affymetrix software were used to draw conclusions.

plasma glucose = assay: Example 5: plasma glucose pharmacodynamics; type: in vivo, human
Experimental: (§1) For insulin/4-CNAB treatment Groups 2 and 3, subjects' blood samples (1 drop per sample) were drawn at 15 minutes before dosing, and at 5, 10, 15, 20, 25, 30, 35, 40, and 50 minutes and at 1, 1.25, 1.5, 1.75, 2, 2.5, 3, 4, 6, 8 and 12 hours post-dose (21 samples per treatment for Insulin/4-CNAB dosing groups) for plasma glucose, insulin and C-peptide measurements. For the 4-CNAB alone treatment Group 1, blood samples were collected before dosing (−15 minutes), and at 30 minutes and at 2 hr post-dose for blood glucose measurements. For the insulin alone control group (minimum 3 subjects), blood samples (3 mL in sodium heparin tube) were drawn at 15 minutes before dosing, and at 10, 20, 30, 40, 50 minutes and 1, 1.25, 2, 2.5, 3 and 6 hr post-dose (12 samples per treatment). The blood samples for glucose were assayed in real time using a Glucometer®. These measurements were used for detection of onset of hypoglycemia, so rescue action could be taken where necessary. Plasma glucose, insulin and C-peptide measurements were done according to standard procedures.
Plasma glucose was measured based on a timed-endpoint method using a BECKMAN Synchron CX system that mixes exact proportions of reagents that catalyse the phosphorylation of glucose. The Synchron CX measures changes in the absorbance spectrum at 340 nm at a fixed time interval. The change in absorbance is directly proportional to the concentration of glucose in the sample.
On the basis of plasma concentrations of glucose, PD analysis was performed using WinNonlin™ Professional version 3.2. The profiles for glucose, glucose change from baseline and glucose percentage change from baseline were evaluated up to 6 hours as food was given 6 hours following insulin treatment. The following PD parameters were computed for plasma glucose concentration: AURC(0-2), AURC(0-t) (total response), Rmax (minimum value), tRmax and concentrations (R^b) and corresponding time (t^b) immediately prior to intervention for hypoglycemia. The following PD parameters were computed for plasma glucose concentration change from baseline: AUEC(0-2), AUEC(0-t) (baseline subtracted), Emax (baseline subtracted), tEmax (obtained without interpolation), percent change from baseline and concentrations (E^c) and corresponding time (t^c) immediately prior to intervention for hypoglycemia.
Similarly, in order to take into account baseline levels of glucose, PD analysis was conducted based on the percent change (decrease or increase) in glucose concentration from the baseline, where baseline was taken as the pre-dose concentration levels, rather than absolute values only. The glucose concentration percent change from baseline values were also calculated, and profiles were tabulated and plotted. Thus, […]

plasma C-peptide = assay: Example 5: plasma C-peptide; type: in vivo, human
Experimental: as §1, with “Plasma glucose, insulin and C-peptide measurements were done according to standard procedures.” left out
Plasma C-peptide was measured using a DELFIA C-peptide kit, based on a solid phase, two-site fluoroimmunometric assay, which used the direct sandwich technique in which two monoclonal antibodies are directed against antigenic determinants on the C-peptide molecule. […] The fluorescence is directly proportional to the concentration of C-peptide in the sample.

[1] = Example 5: C-peptide corrected insulin pharmacokinetics; set-up: species or system human; conditions: in vivo; for C-peptide corrected insulin AUC(0-2) / C-peptide corrected insulin AUC(0-6) / C-peptide corrected insulin tmax, median: human
Experimental: On the basis of plasma concentrations of 4-CNAB and insulin, PK analysis was performed using non-compartmental PK methods as implemented in WinNonlin™ Professional version 3.2. The profiles for insulin and C-peptide corrected insulin were evaluated up to 6 hours as food was given 6 hours following insulin treatment. The following parameters were derived for 4-CNAB: Cmax, tmax, AUC(0-t), AUC(0-inf), AUC% Extrap, Kel, t1/2, CL/F, Vd/F, MRT(0-t), MRT(0-inf) and Frel. The following parameters were derived for insulin and C-peptide corrected insulin: Cmax, tmax, AUC(0-2), AUC(0-6), AUC(0-t) and concentrations (C^b) and corresponding time (t^b) immediately prior to intervention for hypoglycemia.
For the PK analysis of insulin, analysis was conducted for both measured insulin and C-peptide corrected insulin concentrations. This was done using concentrations of the precursor C-peptide and the following equation: Corrected Insulin Concentration=Insulin Concentration−(Baseline Ratio×C-peptide) where

[2] = 10 Units SC, carrier 0, unaudited data
[3] = 10 Units SC, hypoglycemic subjects
[4] = 150 Units oral insulin alone, all subjects
[5] = 150 Units oral insulin alone, non-hypoglycemic subjects

O=C(O)CCCNC(=O)c1ccc(Cl)cc1O [4-CNAB, 4-[(4-chloro, 2-hydroxybenzoyl)amino]butanoic acid]
Changes in aorta mRNA levels (control groups) (aorta mRNA expression): no consistent and significant changes in mRNA levels in the aorta
Effect on plasma glucose levels (plasma glucose; 4-CNAB alone, oral): no significant effect on plasma glucose levels

SC insulin: human regular insulin injected subcutaneously (Humulin R or equivalent; Calbiochem insulin in the rat studies)
ICAM-1 mRNA (aorta mRNA expression; 180 minutes): increased
c-myc mRNA (aorta mRNA expression; 180 minutes): significant increase
IL-6 mRNA (aorta mRNA expression; vs sham): significant increase
% Max C-peptide Reduction (plasma C-peptide; [2]): 54.3 ± 9.8%
C-peptide corrected insulin AUC(0-2) ([1]; sc): 355.2 ± 170.2 pmol·h/L
C-peptide corrected insulin AUC(0-6) ([1]; sc): 942.8 ± 333.0 pmol·h/L
C-peptide corrected insulin tmax, median ([1]; sc): 1.88 h
C-peptide corrected insulin C^b ([1]; sc): 159.5 ± 75.6 pmol/L
C-peptide corrected insulin t^b, median ([1]; sc): 1.00 h
% Max Glucose Reduction (plasma glucose; [2]): 32.3 ± 9.6%
Glucose change AUEC(0-2) (plasma glucose; 10 Units SC, all subjects): -0.71 ± 1.32 mmol·h/L
Glucose change AUEC(0-6) (plasma glucose; 10 Units SC, all subjects): -1.40 ± 4.41 mmol·h/L
Glucose change from baseline Emax (plasma glucose; 10 Units SC, all subjects): -2.28 ± 0.5 mmol/L and -2.28 ± 0.40 mmol/L
Glucose change tEmax, median (plasma glucose; 10 Units SC, all subjects): 1.00 h
Maximum % change of glucose from baseline up to 6 h (plasma glucose; 10 Units SC, all subjects): −39.82±8.26%
Plasma glucose AURC(0-2) (plasma glucose; 10 Units SC, all subjects): 10.40 ± 1.36 mmol·h/L
Plasma glucose AURC(0-6) (plasma glucose; 10 Units SC, all subjects): 32.02 ± 4.66 mmol·h/L
Plasma glucose Rmax (minimum concentration) (plasma glucose; 10 Units SC, all subjects): 3.31 ± 0.42 mmol/L
Plasma glucose tRmax, median (plasma glucose; 10 Units SC, all subjects): 1.00 h
Glucose change AUEC(0-6) (plasma glucose; [3]): 1.00 mmol·h/L
Glucose change E^c (immediately prior to recovery from hypoglycemia) (plasma glucose; [3]): -0.71 ± 1.32 mmol/L
Glucose change from baseline Emax (plasma glucose; [3]): -2.28 ± 0.40 mmol/L
Glucose change tEmax, median (plasma glucose; [3]): 1.00 h
Maximum % change of glucose from baseline up to 6 h (plasma glucose; [3]): −39.82 ± 8.26%
Plasma glucose AURC(0-2) (plasma glucose; [3]): 10.40 ± 1.36 mmol·h/L
Plasma glucose AURC(0-6) (plasma glucose; [3]): 32.02 ± 4.66 mmol·h/L
Plasma glucose R^b (immediately prior to recovery from hypoglycemia) (plasma glucose; [3]): 3.45 ± 0.41 mmol/L
Plasma glucose Rmax (minimum concentration) (plasma glucose; [3]): 3.31 ± 0.42 mmol/L
Plasma glucose tRmax, median (plasma glucose; [3]): 1.00 h
Plasma glucose t^b, median (plasma glucose; [3]): 1.00 h

oral insulin alone: recombinant human zinc insulin given orally without delivery agent
Changes in aorta mRNA levels (control groups) (aorta mRNA expression): no consistent and significant changes in mRNA levels in the aorta
Change in C-peptide concentrations from baseline (plasma C-peptide; 150 Units oral insulin alone): little change in C-peptide concentrations from baseline
C-peptide corrected insulin AUC(0-2) ([1]; po): 10.8 ± 16.6 pmol·h/L
C-peptide corrected insulin AUC(0-6) ([1]; po): 21.5 ± 42.0 pmol·h/L
C-peptide corrected insulin tmax, median ([1]; po): 2.00 h
Change in glucose concentrations (plasma glucose; 150 Units oral insulin alone): only a slight change in glucose concentrations
Glucose change AUEC(0-2) (plasma glucose; [4]): -0.63 ± 0.77 mmol·h/L
Glucose change from baseline Emax (plasma glucose; [4]): -0.79 ± 0.43 mmol/L
Glucose change tEmax, median (plasma glucose; [4]): 6.00 h
Maximum % change of glucose from baseline up to 6 h (plasma glucose; [4]): −12.41 ± 6.48%
Plasma glucose AURC(0-2) (plasma glucose; [4]): 11.06 ± 0.69 mmol·h/L
Plasma glucose AURC(0-6) (plasma glucose; [4]): 32.15 ± 1.41 mmol·h/L
Plasma glucose Rmax (minimum concentration) (plasma glucose; [4]): 5.08 ± 0.20 mmol/L
Plasma glucose tRmax, median (plasma glucose; [4]): 6.00 h
Glucose change AUEC(0-6) (plasma glucose; 150 Units oral insulin alone, all subjects, AUEC(0-t) for 6 h sampling schedule): −3.01 ± 2.44^d mmol · h/L
Glucose change AUEC(0-2) (plasma glucose; [5]): -0.63 ± 0.77 mmol·h/L
Glucose change from baseline Emax (plasma glucose; [5]): -0.79 ± 0.43 mmol/L
Glucose change tEmax, median (plasma glucose; [5]): 6.00 h
Maximum % change of glucose from baseline up to 6 h (plasma glucose; [5]): −12.41 ± 6.48%
Plasma glucose AURC(0-2) (plasma glucose; [5]): 11.06 ± 0.69 mmol·h/L
Plasma glucose Rmax (minimum concentration) (plasma glucose; [5]): 5.08 ± 0.20 mmol/L
Plasma glucose tRmax, median (plasma glucose; [5]): 6.00 h
Glucose change AUEC(0-6) (plasma glucose; 150 Units oral insulin alone, non-hypoglycemic subjects, AUEC(0-t) for 6 h sampling schedule): −3.01 ± 2.44^d mmol · h/L
Plasma glucose AURC(0-6) (plasma glucose; 150 Units oral insulin alone, non-hypoglycemic subjects, AURC(0-t) for 6 h sampling schedule): 32.15 ± 1.41^c mmol · h/L
